The target of assay [1] is T1, E6AP-HECT (Homo sapiens, UniProt Q05086).
T1 construct: The C terminal domain of E6AP, consisting of about 350 amino acid residues, is called the HECT
T1 sequence (Q05086 495-852 isoform Q05086-2 limits assumed): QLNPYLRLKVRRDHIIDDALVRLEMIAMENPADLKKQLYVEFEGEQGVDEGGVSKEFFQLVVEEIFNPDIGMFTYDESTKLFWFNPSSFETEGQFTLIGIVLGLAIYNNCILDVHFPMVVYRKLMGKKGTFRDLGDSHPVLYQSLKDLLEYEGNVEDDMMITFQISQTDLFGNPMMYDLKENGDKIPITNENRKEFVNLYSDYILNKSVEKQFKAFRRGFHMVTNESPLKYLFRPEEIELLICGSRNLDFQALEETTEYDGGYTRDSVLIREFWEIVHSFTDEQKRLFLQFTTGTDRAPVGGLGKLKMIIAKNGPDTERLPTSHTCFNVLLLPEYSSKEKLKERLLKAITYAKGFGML
In words: Determination of binding constant using SPR (BIACORE T100, streptavidin sensor chip). The protocol: The binding constant of MCP11 to E6AP-HECT was analyzed by a surface plasmon resonance using BIACORE T100.
A streptavidin sensor chip (SA chip certified) was used as a sensor chip, an Avi-His-GB1-E6AP-HECT was used as a ligand, and MCP11 was used as an analyte. After E6AP-HECT was fixed to a sensor chip, the KD of MCP11 was 0.5 nM.

Assay [2] addresses T2, E6AP-HECT (Homo sapiens, UniProt Q05086).
T2 construct: The C terminal domain of E6AP, consisting of about 350 amino acid residues, is called the HECT
Nature of the assay: KD / nM. The text has this:
Table printed on a drawing sheet, Figure 5-4
Head of the field: KD / nM
Biotinylated E6AP-HECT was fixed to the streptavidin chip to analyze affinity using the peptides. (Example 7)
First copying reader's note: Brackets drawn under MCP11 and CP11 link the N-terminal CH2CO to the second Cys (cyclic peptides); the raised Me marks and underlining denote N-methyl residues.
Where the first naming reader finds the target: description_of_the_figure: Biotinylated E6AP-HECT was fixed to the streptavidin chip to analyze affinity using the peptides.
T2 sequence (Q05086 whole entry, looked up, the tested form may be a part): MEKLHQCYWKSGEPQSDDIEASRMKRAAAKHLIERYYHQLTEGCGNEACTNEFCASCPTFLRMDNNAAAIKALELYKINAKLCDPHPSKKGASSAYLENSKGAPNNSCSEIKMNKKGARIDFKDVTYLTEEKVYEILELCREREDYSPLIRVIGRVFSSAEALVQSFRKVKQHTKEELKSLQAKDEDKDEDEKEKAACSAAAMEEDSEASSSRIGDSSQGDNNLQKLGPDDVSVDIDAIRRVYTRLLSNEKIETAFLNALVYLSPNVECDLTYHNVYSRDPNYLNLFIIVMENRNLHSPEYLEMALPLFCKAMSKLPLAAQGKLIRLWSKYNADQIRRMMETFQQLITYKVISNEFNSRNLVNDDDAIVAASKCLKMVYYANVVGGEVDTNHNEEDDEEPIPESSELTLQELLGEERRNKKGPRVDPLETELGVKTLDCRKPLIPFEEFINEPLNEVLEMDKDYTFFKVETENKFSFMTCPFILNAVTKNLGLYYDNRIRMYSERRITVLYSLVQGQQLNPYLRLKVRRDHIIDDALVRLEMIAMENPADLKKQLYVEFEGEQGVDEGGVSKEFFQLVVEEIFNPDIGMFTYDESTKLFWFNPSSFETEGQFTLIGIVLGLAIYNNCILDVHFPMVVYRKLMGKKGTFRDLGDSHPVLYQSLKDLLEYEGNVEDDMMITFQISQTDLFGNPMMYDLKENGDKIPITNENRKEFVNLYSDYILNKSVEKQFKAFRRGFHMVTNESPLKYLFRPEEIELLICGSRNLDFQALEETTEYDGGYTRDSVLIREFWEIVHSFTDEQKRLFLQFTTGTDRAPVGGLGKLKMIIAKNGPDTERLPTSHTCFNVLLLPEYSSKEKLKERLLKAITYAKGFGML

Bridge positions count the residues as written; N and C are the ends. Square brackets hold non-standard residues; d marks the D form. Peptide text beside a SMILES is read from it. NMeF = CN[C@@H](Cc1ccccc1)C(=O)O; NMeS = CN[C@@H](CO)C(=O)O; Sar = CNCC(=O)O Bounds are passed on as bounds.

`CC(C)[C@@H]1NC(=O)[C@H](CC(=O)O)NC(=O)[C@H](CS)NC(=O)[C@@H](Cc2c[nH]c3ccccc23)NC(=O)CSC[C@@H](C(=O)NCC(N)=O)NC(=O)[C@@H]2CCCN2C(=O)[C@H](Cc2ccccc2)N(C)C(=O)[C@H](Cc2ccc(O)cc2)NC(=O)CN(C)C(=O)[C@H](Cc2ccccc2)N(C)C(=O)[C@H](CCCNC(=N)N)NC(=O)CNC(=O)[C@H](CO)N(C)C1=O` [MCP11, Cyclo(-Ac-^DWCDV^MeSGR^MeF^MeGY^MeFPC)G-OH] ({CH2CO}-[dW]CDV[NMeS]GR[NMeF][Sar]Y[NMeF]PCG-NH2; thioether N-13) registered a Kd on E6AP-HECT [1] (surface plasmon resonance, Avi-His-GB1-E6AP-HECT fixed as ligand, peptide as analyte) of 0.5 nM. On to `CC(=O)N[C@H](Cc1c[nH]c2ccccc12)C(=O)N[C@@H](CS)C(=O)N[C@@H](CC(=O)O)C(=O)N[C@H](C(=O)N(C)[C@@H](CO)C(=O)NCC(=O)N[C@@H](CCCNC(=N)N)C(=O)N(C)[C@@H](Cc1ccccc1)C(=O)N(C)CC(=O)N[C@@H](Cc1ccc(O)cc1)C(=O)N(C)[C@@H](Cc1ccccc1)C(=O)N1CCC[C@H]1C(=O)N[C@@H](CS)C(=O)NCC(N)=O)C(C)C` [MLP11:, CH3CO-wCDV^MeSGR^MeF^MeGY^MeFPCG-NH2] (Ac-[dW]CDV[NMeS]GR[NMeF][Sar]Y[NMeF]PCG-NH2), for which, at E6AP-HECT [2], the Kd is 100 to 1000 nM. Take `CC(=O)N[C@H](Cc1c[nH]c2ccccc12)C(=O)N[C@@H](CS)C(=O)N[C@@H](CC(=O)O)C(=O)N[C@H](C(=O)N(C)[C@@H](CO)C(=O)NCC(=O)N[C@@H](CCCNC(=N)N)C(=O)N(C)[C@@H](Cc1ccccc1)C(=O)N(C)CC(=O)N[C@@H](Cc1ccc(O)cc1)C(=O)N(C)[C@@H](Cc1ccccc1)C(=O)N1CCC[C@H]1C(=O)N[C@@H](CS)C(=O)NCC(N)=O)C(C)C` [MLP11] (Ac-[dW]CDV[NMeS]GR[NMeF][Sar]Y[NMeF]PCG-NH2): on E6AP-HECT [1] (KD of MLP11 relative to MCP11), the “difference in the binding ability” value was not below 200 times.
